This is an account of results in patent publication US10987343B2, “Compositions and methods for treating pulmonary diseases” (CASE WESTERN RESERVE UNIVERSITY, priority 2015, dated 2021).

Each structure is given as a SMILES string.

Experiment [1] relates to CF mice. Briefly: Pulmonary mechanics of CF mice by forced oscillation technique (FlexiVent) after treatment with AGTR2 blocker. Conditions: 2 mg/kg per day subcutaneous, 5 days per week, age 3 to 16 weeks, assessed at 16 weeks, 2 mg/kg/day. In kind it is in vivo. The source says:
AGTR2 knockout mice (AT KO; dark grey bars) are indistinguishable from WT mice.
We recently used a forced mechanical oscillation procedure to evaluate pulmonary mechanics in CF mice (DF508 congenic C57bl/6). We determined that CF mice have decreased compliance and increased elastance of their overall respiratory system, along with altered airway tissue elastance, damping, and static compliance (FIG. 1). […] Taken together, these findings indicate increased impedance of the small airways in CF mice, as differences in CF mouse pulmonary mechanics were confined to the peripheral tissues, which include the distal airways and lung parenchyma itself. This is consistent with the pulmonary phenotype of CF patients, where significant increases in small airways resistance may occur even in patients with normal spirometry.
(§1) Drugs exist that are designed to specifically block the AGTR2 receptor, and we used one of these drugs to determine whether the same benefits may be achievable through pharmaceutical intervention. Briefly, CF mice were treated via subcutaneous injection of EMA200 (PD123319), available from Sigma Pharmaceuticals), at a dose of 2 mg/kg per day. The mice were treated from age 3 weeks through adulthood (16 weeks), 5 days per week. At 16 weeks, the pulmonary mechanics of the mice were assessed using the forced oscillation technique (FIG. 1).

The subject of experiment [2] is CF mice. In words: Survival and health of CF mice during the drug study. In kind it is in vivo. How it is done:
as §1

Regarding `Cc1cc(Cn2cnc3c2CC(C(=O)O)N(C(=O)C(c2ccccc2)c2ccccc2)C3)ccc1N(C)C` (centres unmarked) [EMA200, 1-(4-Dimethylamino-3-methylphenyl)methyl-5-diphenylacetyl-4,5,6,7-tetrahy-dro-1H-imidazo[4,5-c]-pyridine-6-carboxylic acid], in the experiment with CF mice [1], the “pulmonary mechanics / all aspects of pulmonary disease (respiratory system compliance and elastance, tissue damping, tissue elastance, static tissue compliance)” value was “successfully restored/prevented all aspects of pulmonary disease in CF mice”; the “shape parameter (inhalation/exhalation curve shape, K)” value is listed as “not improved”. The “pulmonary mechanics / all aspects of pulmonary disease (respiratory system compliance and elastance, tissue damping, tissue elastance, static tissue compliance)” value with CF mice [1] (listed as AGTR2 inhibitor) was “improved pulmonary mechanics”. Also, the “survival of CF mice” value in the experiment with CF mice [2] (6 CF mice, daily injections, saline controls 5/6 died) is recorded as “all survived”. In addition, in the experiment with CF mice [2] (versus control untreated CF mice), the “general health appearance of CF mice” value is reported as “appeared much healthier”.
